From patent US20230136218A1, “METHODS AND COMPOSITIONS FOR TREATING ACUTE MYELOID LEUKEMIA” (President and Fellows of Harvard College, priority 2019, published 2023)
Entries after “also recorded” stand apart in the source; their conditions may differ.

Key:
MLL-AF9 AML = experiment: Kaplan-Meier survival of MLL-AF9 AML-bearing mice; type: in vivo, mouse
Source text: (§1) The MLL-AF9 and HoxA9/Meis1 leukemia models have been described previously (Sykes et al., 2016). Briefly, the MLL-AF9 model was established by crossing MLL-AF9 knockin mice (Corral et al., 1996) with mice expressing GFP under the control of the ubiquitin promoter as well as mice expressing luciferase under the control of the β-actin promoter. The retroviral transduction model of HoxA9/Meis1 leukemia was generated by the infection of bone marrow mononuclear cells with an MSCV-HoxA9-IRES-Meis1 construct (originally designed by Dr. Guy Sauvageau; Kroon et al., 1998). For both models, leukemic bone marrow cells from a terminally ill mouse were harvested and expanded ex vivo in RPMI1640 medium (Lonza) supplemented with 10% fetal bovine serum (FBS; Gibco), 100 I.U./ml penicillin, 100 μg/ml streptomycin, 2 mM L-glutamine (all from Corning), 20 ng/ml recombinant mouse SCF (rmSCF), 10 ng/ml recombinant mouse interleukin 3 (rmIL-3) and […] (all from R&D Systems).
(§2) Recipient male mice (age 8-10 weeks) were injected intravenously (retro-orbital) with 1 million leukemia cells in a volume of 100 μl of saline. Disease progression was tracked intravitally using bioluminescence imaging. Mice were anaesthetized using isoflurane, injected with luciferin (150 μl of a 15 mg/ml solution in PBS), and imaged on an IVIS 200 Spectrum In Vivo Imaging System (PerkinElmer). When indicated, mice were treated with iCT (cytarabine, 100 mg/kg, once daily for 5 days and doxorubicin, 3 mg/kg, once daily for the first 3 days) or vehicle (saline) delivered via I.P. injection. To inhibit glutamine metabolism, mice were treated with DON (0.3 mg/kg, once daily) or vehicle (saline) delivered via I.P. injection. To inhibit GLS, mice were treated with a GLS inhibitor (150 mg/kg, twice daily) or vehicle (20% HP-β-cyclodextrin+20% Solutol, 50 mM citrate buffer, pH 3) delivered by oral gavage. To inhibit DHODH, mice were treated with BRQ (50 mg/kg, once daily) or vehicle (70% PBS, 30% poly(ethylene glycol)-400, pH 7.2) delivered via I.P. injection. To inhibit GCL, mice were treated with BSO (twice daily by I.P. injection at 2.23 mg/kg+in the drinking water at 4.45 mg/ml) or vehicle (saline by I.P. injection+untreated drinking water).

MLL-AF9 AML cells [1] = experiment: Flow cytometric quantification of CD34 and cKit levels in AML cells obtained from treated mice; type: in vivo, mouse
Protocol: as §2
(§3) Cells were suspended in flow buffer and stained for 30 minutes at 4° C. in the dark with antibodies against c-Kit, Sca-1, CD34, CD45, Ter-119, CD31, LepR, CD90, CD105, SLC1A3, SLC38A1 or a lineage cocktail (CD3, Gr-1, CD11b, B220, Ter-119). 7-AAD was included as a viability dye to help identify dead cells. When necessary, cells were stained with a secondary antibody (Alexa Fluor 546-conjugated anti-rabbit IgG) or APC-eFluor 780-conjugated streptavidin (eBioscience) for 15 minutes at 4° C. in the dark. […] Cell viability was analyzed using Annexin V-APC (BioLegend) and propidium iodide (PI; ThermoFisher Scientific) with Annexin V^−PI^− cells considered as viable cells. The number of viable cells was determined by taking into account the total number of cells per well as measured using a Cellometer (Nexcelom). Mitochondrial membrane potential was measured by Tetramethylrhodamine, ethyl ester (TMRE; ThermoFisher) staining and levels of ROS were measured by CellROX Orange staining. Cells were incubated with 200 nM TMRE or 2.5 μM CellROX Orange in RPMI1640 medium supplemented with 10% FBS, 100 I.U./ml penicillin, 100 μg/ml streptomycin and 2 mM L-glutamine at 37° C. for 30 minutes, washed in flow buffer and analyzed. For all flow cytometry experiments, single color controls were used to set compensations and fluorescence minus one controls were used to set gates. All flow cytometry data was collected on a BD LSR II flow cytometer and analyzed using FlowJo software.

[2] = test system: pyrimidine synthesis in HoxA9/Meis1 AML cells; experiment: LC-MS-based quantification of glutamine metabolism and pyrimidine synthesis metabolites in HoxA9/Meis1 AML cells of treated mice; type: in vivo, mouse; conditions: mice treated with vehicle or BRQ 24 prior
Protocol: as §2, with “To inhibit GCL, mice were treated with BSO (twice daily by I.P. injection at 2.23 mg/kg+in the drinking water at 4.45 mg/ml) or vehicle (saline by I.P. injection+untreated drinking water).” left out
(§4) For untargeted metabolomics analysis, data were processed with Compound Discoverer 3.0 (ThermoFisher Scientific) using the mzCloud mass spectral library for compound annotation. […] For targeted metabolomics analysis, data were analyzed with Tracefinder4.1 (ThermoFisher Scientific).

MLL-AF9 AML cells [3] = experiment: Colony forming unit assay of AML cells obtained from treated mice; type: in vivo, mouse
Protocol: as §2, with “water). […] FACS-sorted viable AML cells (GFP^+7-AAD^−) were resuspended in MethoCult GF M3434 (StemCell Technologies) at 1000 cells/ml and plated in SmartDish 6-well plates (StemCell Technologies) at 1 ml/well in duplicate. Cells were cultured in a humidified incubator at 37° C. in ambient air with 5% CO2. After 5 days colonies were counted.” for “water).”

MLL-AF9 AML cells [4] = experiment: AML burden of MLL-AF9 AML-bearing mice by bioluminescence imaging or flow cytometry; type: in vivo, mouse
Protocol: as §2, with “To inhibit DHODH, mice were treated with BRQ (50 mg/kg, once daily) or vehicle (70% PBS, 30% poly(ethylene glycol)-400, pH 7.2) delivered via I.P. injection. To inhibit GCL, mice were treated with BSO (twice daily by I.P. injection at 2.23 mg/kg+in the drinking water at 4.45 mg/ml) or vehicle (saline by I.P. injection+untreated drinking water).” left out
as §3, with “Ter-119).” for “Ter-119). 7-AAD was included as a viability dye to help identify dead cells. When necessary, cells were stained with a secondary antibody (Alexa Fluor 546-conjugated anti-rabbit IgG) or APC-eFluor 780-conjugated streptavidin (eBioscience) for 15 minutes at 4° C. in the dark.”, “All flow cytometry data was collected on a BD LSR II flow cytometer and analyzed using FlowJo software.” left out

HoxA9/Meis1 AML = experiment: Kaplan-Meier survival of HoxA9/Meis1 AML-bearing mice; type: in vivo, mouse
Source text: as §1
Recipient male mice (age 8-10 weeks) were injected intravenously (retro-orbital) with 1 million leukemia cells in a volume of 100 μl of saline. Disease progression was tracked intravitally using bioluminescence imaging. Mice were anaesthetized using isoflurane, injected with luciferin (150 μl of a 15 mg/ml solution in PBS), and imaged on an IVIS 200 Spectrum In Vivo Imaging System (PerkinElmer). […]

MLL-AF9 AML cells [5] = experiment: Double-stranded DNA breaks in MLL-AF9 AML cells of treated mice, flow cytometry for gamma-H2AX; type: in vivo, mouse; conditions: short term DON after iCT; one day after the last dose of DON
Protocol: Recipient male mice (age 8-10 weeks) were injected intravenously (retro-orbital) with 1 million leukemia cells in a volume of 100 μl of saline. Disease progression was tracked intravitally using bioluminescence imaging. Mice were anaesthetized using isoflurane, injected with luciferin (150 μl of a 15 mg/ml solution in PBS), and imaged on an IVIS 200 Spectrum In Vivo Imaging System (PerkinElmer). When indicated, mice were treated with iCT (cytarabine, 100 mg/kg, once daily for 5 days and doxorubicin, 3 mg/kg, once daily for the first 3 days) or vehicle (saline) delivered via I.P. injection. […]
Cells were suspended in flow buffer and stained for 30 minutes at 4° C. in the dark with antibodies against c-Kit, Sca-1, CD34, CD45, Ter-119, CD31, LepR, CD90, CD105, SLC1A3, SLC38A1 or a lineage cocktail (CD3, Gr-1, CD11b, B220, Ter-119). […] Cell viability was analyzed using Annexin V-APC (BioLegend) and propidium iodide (PI; ThermoFisher Scientific) with Annexin V^−PI^− cells considered as viable cells. The number of viable cells was determined by taking into account the total number of cells per well as measured using a Cellometer (Nexcelom). Mitochondrial membrane potential was measured by Tetramethylrhodamine, ethyl ester (TMRE; ThermoFisher) staining and levels of ROS were measured by CellROX Orange staining. […]

HoxA9/Meis1 AML cells = experiment: AML cell elimination in HoxA9/Meis1 AML-bearing mice; type: in vivo, mouse; conditions: DON after completion of iCT
Protocol: as §2

[6] = test system: glutamine metabolism in MLL-AF9 AML cells; experiment: LC-MS-based quantification of metabolites in MLL-AF9 AML cells of treated mice; type: in vivo, mouse; conditions: one day after the last dose of DON
Protocol: as §2
Mice were euthanized by CO2 asphyxiation and femurs and tibias were isolated and cleaned to remove muscle. Bones were then crushed using a mortar and pestle in ice-cold flow buffer (PBS containing 2% FBS), and the obtained cell suspension was passed through a 70 μm cell strainer. Red blood cells were removed by incubating cells for 5 minutes in ACK lysing buffer (Gibco) on ice, cells were washed and resuspended in ice-cold flow buffer containing the viability dye 7-aminoactinomycin D (7-AAD; BD Biosciences). Viable AML cells (GFP^+7-AAD^−) were sorted on a BD FACSAria II (BD Biosciences) with the sample collector cooled to 4° C. Sorted cells were immediately processed.
FACS-sorted cells or plasma samples were lysed in ice-cold methanol and polar metabolites were extracted using methanol-chloroform phase separation (methanol:water:chloroform in 2:1:2 ratio). Samples were then dried under nitrogen flow, resuspended in 70% acetonitrile in water containing 2.5 μM of an internal standard (^13C-, ^15N-labeled amino acid mix; Cambridge Isotope Laboratories) and run on a ThermoFisher Q-exactive equipped with Zic-pHILIC column (150×2.1 mm, 5 μm; Merck). A volume of 5 μl was injected and the full mass spectrum was obtained in both positive and negative mode (0 to 45 minutes, resolution 70000, AGC target 3e6, mz range 66 to 990). Mobile phase A for chromatography consisted of 20 mM ammonium carbonate, 0.1% ammonium hydroxide, in water and mobile phase B of 97% acetonitrile in water. For untargeted metabolomics, a pooled sample was created from all samples and used for MS/MS runs. For targeted analysis, a standard mix at 1 μM of each compound of interest was prepared and run after the samples to confirm retention times.
as §4

[7] = test system: solid tumors and leukemia; conditions: Phase I and II clinical trials, cited from earlier work
MLL-AF9 AML cells [8] = experiment: Apoptotic cells in MLL-AF9 AML cells of treated mice, flow cytometry for active Caspase 3; type: in vivo, mouse; conditions: combination of iCT and DON (sequential); one day after the last dose of DON
Protocol: as §2

[9] = Tolerability of DON in AML-bearing mice; type: in vivo, mouse
Protocol: as §2

[10] = agent alone, compared to vehicle-treated mice
[11] = combination with iCT (sequential), four days after the last dose of iCT

SMILES: CCCCS(=N)(=O)CCC(N)C(=O)O [BSO, L-buthionine-sulfoximine]
- survival (MLL-AF9 AML; BSO (2.23 mg/kg B.I.D. I.P. + 4.45 mg/ml in drinking water) for 4 days following iCT, compared to iCT alone): no difference in survival compared to iCT alone

SMILES: Cc1c(-c2ccc(-c3ccccc3F)cc2)nc2ccc(F)cc2c1C(=O)O [BRQ, brequinar]
- percentage of CD34+cKit+ cells (MLL-AF9 AML cells [1]; [10]): strongly reduced
- percentage of CD34-cKit+ cells (MLL-AF9 AML cells [1]; combination with iCT, compared to BRQ alone): further reduced
- pyrimidine synthesis (metabolite levels) [2]: effectively inhibits pyrimidine synthesis
- number of colony-forming units (CFUs) (MLL-AF9 AML cells [3]; [10]): strongly reduced
- number of colony-forming units (CFUs) (MLL-AF9 AML cells [3]; [11]): further reduced
- elimination of AML cells from the bone marrow (MLL-AF9 AML cells [4]; short term BRQ after iCT, four days after the last dose of iCT): improved elimination of AML cells from the bone marrow
- survival (MLL-AF9 AML; two doses of BRQ 50 mg/kg I.P. following iCT, compared to iCT alone): significantly extend survival; also recorded: extended survival
- survival (MLL-AF9 AML; two doses of BRQ 50 mg/kg I.P. following iCT, compared to iCT alone, listed as brequinar): remarkably extend animal survival
- survival (HoxA9/Meis1 AML; BRQ 50 mg/kg I.P. following iCT, compared to iCT alone (FIG. 19E)): significantly extend survival

SMILES: [N-]=[N+]=CC(=O)CC[C@H](N)C(=O)O [DON, 6-diazo-5-oxo-L-norleucine]
- percentage of CD34+cKit+ cells (MLL-AF9 AML cells [1]; [10]): no effect on marker expression
- percentage of CD34+cKit+ cells (MLL-AF9 AML cells [1]; [11]): normalized
- double stranded DNA breaks in residual cells (gamma-H2AX) (MLL-AF9 AML cells [5]): increased double stranded DNA breaks
- number of colony-forming units (CFUs) (MLL-AF9 AML cells [3]; [10]): moderately increased the number of CFUs
- number of colony-forming units (CFUs) (MLL-AF9 AML cells [3]; [11]): normalized
- AML cell elimination (HoxA9/Meis1 AML cells): enhanced AML cell elimination
- UMP levels in chemoresistant AML cells ([6]; DON after iCT): prevented the increase of UMP levels
- glutamate level in AML cells ([6]; DON after iCT): normalizing the increase in glutamate; also recorded: partially reducing the increase in glutamate
- reduced glutathione (GSH) levels in AML cells ([6]; DON after iCT): effective in suppressing the increase in GSH levels
- aspartate level in AML cells ([6]; iCT followed by DON): remained high
- glutamine level in AML cells ([6]; mice treated with iCT and/or DON): accumulation of glutamine
- clinical side effects [7]: dose-dependent side effects including nausea, vomiting and mucositis
- clinical efficacy ([7]; single agent): limited efficacy as a single agent
- relapse (MLL-AF9 AML cells [4]; short term DON after iCT, bioluminescence imaging): delayed relapse
- elimination of AML cells (AML burden) (MLL-AF9 AML cells [4]; short term DON after iCT, one day after the last dose of DON): improved elimination of AML cells; also recorded: reduced the number of chemoresistant cells
- survival (MLL-AF9 AML; DON 0.3 mg/kg I.P. given for 5 days at the same time as iCT (concomitant)): no difference in survival
- survival (MLL-AF9 AML; DON 0.3 mg/kg I.P. started after completion of iCT, covering the moment of maximal response, daily for a short time or continuously every other day): clear survival benefit; also recorded: improved survival
- survival, DON every other day compared to short term DON treatment (MLL-AF9 AML; DON every other day following iCT): further improved mouse survival
- percentage of apoptotic cells (active Caspase 3) (MLL-AF9 AML cells [8]): more apoptotic cells
- tolerability ([9]; DON every other day after iCT): acceptable
- tolerability / toxicity ([9]; daily DON injections after iCT): toxicity issues; also recorded: did not tolerate
- survival (HoxA9/Meis1 AML; two doses of DON 0.3 mg/kg I.P. after completion of iCT): improved mouse survival
